Data from publication PMC5848165 (Toxins, 2018).

Tests used:
[1] = test system: hot plate test in mice; test: Hot plate test; type: in vivo, mouse (Kunming); conditions: 5 mg/kg i.p., baseline about 10 s, n = 6
Experimental: (§1) Figure 6 Effects of JZTX-34 on pain. (A) Effects of JZTX-34 on the early phase (0–5 min) and late phase (15–30 min) of formalin-induced paw licking response in mice. (B) Effects of JZTX-34 on the acetic acid-induced writhing response in mice. (C)Effects of JZTX-34 on the hot plate test in mice.
Mice with a latency time about 10 s were selected for the hot plate test. […] After administration of test samples, the latency time was recorded at the time points of 30 min, 60 min, 120 min, and 180 min (Figure 6C). Negative control animals received the same volume of vehicle.
(§2) The synthesized JZTX-34 was obtained according to the procedure as previously described. […] Rats (Sprague-Dawley) and Kunming mice were maintained in the Laboratory of Protein Chemistry of Hunan Normal University. All of the experimental involving animals were approved by the Animal Care and Use Committee of Hunan Normal University (2016-273, 13 October 2016).
Mice were put on a hot plate apparatus (model HZ66-ZH-YLS-6B, Shanghai, China) in order to test response time to a thermal stimulus. The responses time of mice at about 10 s was selected for the test. […] Hind paw licking or jumping were regarded as a sign to avoid heat nociception.
(§3) Data from Axon 700B patch clamp were analyzed by Clampfit10.0 (Molecular Devices, Sunnyvale, CA, USA). Dose-response curves were fitted by the Hill logistic equation: y = 1 − (1 − fmax)/[…]. In this equation, n stands an empirical Hill coefficient and fmax is the fraction of current resistant to inhibition at high toxin (Tx) concentration. The G-V curves were obtained by calculating the conductance (G) at each voltage (V) using the equation G = I/(V1 − Vrev), with Vrev being the reversal potential determined for each cell individually. G-V curves were fitted using a Boltzmann equation—y = 1/(1 + exp[(Va − V)/κ])—in which Va, V, and κ represent midpoint voltage of kinetics, test potential, and slope factor, respectively. […] Statistical significance was calculated using Student’s t-test and was defined as p < 0.05.

[2] = test system: formalin-induced paw licking response in mice; test: Formalin-induced paw licking; type: in vivo, mouse (Kunming); conditions: 5 mg/kg i.p., n = 6
Experimental: Since Nav1.7 plays an important role in pain, the analgesic effects of JZTX-34 were examined in three animal models (formalin-induced paw licking, acetic acid-induced writhing, and hot plate). Intraplantar injection of formalin causes pain and can be divided into two phases. The early phase was neurogenic pain and usually occurred within […]), and the late phase was inflammatory pain lasting from 15 to 30 min).
as §1, §2
Formalin test was performed according to the method described previously. […] After test samples were intraperitoneally (i.p.) injected, 5% formalin (20 μL) was injected to the plantar surface of right hind paw. The time spent licking the injected paw was counted every 5 min. Phase I was defined as 0–10 min, and Phase II defined as […].
as §3

[3] = test system: other sodium channel subtypes; conditions: literature statement, no reference given; cited from earlier work
[4] = test system: inflammatory pain and neuropathic pain; conditions: cited from earlier work
[5] = test system: Nav1.7; conditions: cited from earlier work; for potency on Nav1.7 (literature): ref [14],[15]
Source text: Chronic pain is one of the most difficult clinical problems. As Nav1.7 is considered one of the most attractive targets for relieving chronic pain, scientist have paid a lot of effort to look for a selective inhibitor of Nav1.7. Several small molecules with selectivity on Nav1.7 are currently undergoing clinical development, including PF-05089771 (Pfizer, New York, NY, USA) and CNV1014802 (Convergence Pharmaceuticals, London , UK). Compared to small molecules, peptide toxins have better subtype selectivity due to their larger pharmacophore. Spider venoms are a rich source of ion ch ... || Many peptide toxins, which alter gating properties of VGSCs, have been identified to trap the DIIS3-S4 linker of sodium channels. However, the molecular mechanisms of inhibition of sodium currents by peptide toxins are greatly divergent. […] Pro ...

[6] = test system: C-fiber compound action potential; design: method as in PMID 28045073; conditions: desheathed cutaneous nerves; ref [27]; cited from earlier work

Molecule: CN1CC[C@]23c4c5ccc(O)c4O[C@H]2[C@@H](O)C=C[C@H]3[C@H]1C5 [morphine, reference compound]
- hot plate latency ([1]; 30 min): 24.8
- hot plate latency ([1]; 60 min): 12.2 s
- paw licking time, early phase ([2]; control 145.5 s): 35.3 s
- paw licking time, late phase ([2]; control 414.5 s): 265 s

Molecule: HWTX-IV
- activity on other sodium channel subtypes [3]: also show activity on other sodium channel subtypes
- relief of acute inflammatory and chronic neuropathic pain ([4]; ref [28]): efficiently eased the acute inflammatory pain and chronic neuropathic pain
- potency on Nav1.7 (literature) [5]: very potent Nav1.7 blockers
- effect on channel gating (HWTX-IV, literature) ([5]; ref [25]): without affecting activation or inactivation of channels

Molecule: ProTx-II
- activity on other sodium channel subtypes [3]: also show activity on other sodium channel subtypes
- analgesic effect on severe pain ([4]; ref [27]): exerted a strong analgesic effect on severe pain
- potency on Nav1.7 (literature) [5]: very potent Nav1.7 blockers
- effect on channel gating (ProTx-II, literature) ([5]; ref [26]): modified the voltage dependence of VGSC inactivation
- C-fiber compound action potential [6]: completely blocked the C-fiber compound action potential
